Experimental data as given in patent US5840936A, “Aminosterol compounds useful as inhibitors of the sodium/proton exchanger (NHE)” (priority 1995, dated 1998).
Entries after “also recorded” stand apart in the source; their conditions may differ.

Tests used:
rabbit NHE1 = assay: NHE1 inhibition, internal pH in PS120 fibroblasts expressing rabbit NHE1; assay type: cell-based; conditions: 5 μg/ml squalamine, acid-preloaded
Protocol: (§1) PS120 fibroblasts transfected with rabbit or human NHEl were grown as described above.

[1] = system: bovine pulmonary endothelial cells; assay: Growth inhibition of endothelial cells in vitro; assay type: cell-based; conditions: 1 μg/ml
[2] = system: human foreskin fibroblasts; assay: Growth inhibition of fibroblasts in vitro; assay type: cell-based; conditions: 10 μg/ml
[3] = system: chick chorioallantoic membrane capillaries; assay: Chorioallantoic membrane (CAM) model, inhibition of capillary growth; assay type: in vivo; conditions: for Percentage positive, Assay 1 / Percentage positive, Assay 2 / Percentage positive, Mean: 3-day embryo
Excerpt: The growing capillaries within the chorioallantoic membrane model (CAM model) have been used as a system in which to evaluate the effect of agents on their potential to inhibit new vessel growth. Neovascularization occurs most aggressively over the first week of embryonic development. Thereafter capillary growth is characterized by principally "elongation" rather than "de novo" formation.
In the standard assay, agents are applied locally to a region of the embryo over which neovascularization will occur. Agents are assessed by their ability to inhibit this process, as evaluated by visual examination about 7 days after application. […] The assay utilized is described in detail in Auerbach et al., Pharm. Ther. 51, 1991, 1-11.

[4] = system: human coronary artery smooth muscle; assay: Growth of human coronary artery smooth muscle in vitro; assay type: cell-based; conditions: in vitro
Excerpt: Aminosterols of the invention may also have utility in inhibiting the growth factor mediated proliferation of smooth muscle within the artery. Following coronary angioplasty, reocclusion commonly occurs, secondary to reparative proliferation of the vascular smooth muscle within the wall of the surgically manipulated blood vessel. This process generally takes place over the course of 7-10 days. To evaluate whether an agent could prevent the growth factor mediated proliferation of smooth muscle within the artery, compound 1436 was evaluated in vitro for its effect on the proliferation of human coronary artery smooth muscle. Results for compound 1436 are shown in FIG. 13, and those for squalamine are shown in FIG. 14, with FIG. 15 being a composite logarithmic plot.

[5] = system: human epithelial cell line MCF 10A; assay: Growth inhibition of epithelial cells in vitro; assay type: cell-based; conditions: 10 μg/ml
ELC = ELC MTT; assay type: cell-based; conditions: Table II; read-out: ELC MTT, Minimum Effective Concentration
human melanoma 1205Lu = assay: Suppression of human melanoma in RAG-1 mice; assay type: in vivo
Excerpt: As apparent from FIG. 5, melanoma 120SLu develops aggressively in RAG-1 mice after implantation.

[6] = system: human umbilical venous endothelial cells; assay: LPS-induced neutrophil adherence to human umbilical venous endothelial cells; conditions: 10 μg, 1.0 μg, or 0.1 μg; LPS or TNF-α
Protocol: In these experiments, approximately 2×10^5 human umbilical venous cells (passage 2-6) were plated per well. The cells were grown in serum-free media overnight. For induction, either TNF-α (40 ng/ml) was added to endothelial cells for 6 hours prior to adding neutrophils or LPS (100 ng/ml) was added for 4-6 hours. […] After activation of the endothelial cells, approximately 50×10^6 neutrophils were added per well. The plates were gently rocked for 30 minutes at room temperature, followed by removal of the media and washing in serum-free media three times and then photographing of each well. […] A monoclonal Ab to ICAM-1 was a positive control.

[7] = system: Xenopus tadpoles, stage 59-60; conditions: 10 μg/mL
B16 melanoma = assay: Suppression of B16 melanoma growth in C57B mice; assay type: in vivo, mouse
Protocol: The growth of B16 melanoma in C57B mice is dependent upon neovascularization.
Using the growth of B16 melanoma cells in C57B mice, a recognized model for the evaluation of inhibitors of angiogenesis on the growth of cancers, the effects of subcutaneous, intraperitoneal and oral administration of squalamine were evaluated.
Animals were implanted with B16 melanoma followed by treatment with compound 1436 or 1256 administered in a combined schedule or separately. […] Thus, a combination of these two compounds achieves a theraputic benefit in tumors dependent on neovascularization that may prevent metastatic spread.

[8] = system: chick embryo vitelline capillaries; assay: Chick embryo vitelline capillary regression assay; assay type: in vivo; design: key to Vitelline capillary regression: +: Vascular reactivity; 0: No vascular reactivity; +/-: Equivocal reactivity
Protocol: Using the chick embryo vitelline capillaries assay, compounds were tested for their ability to induce capillary regression. Each compound was applied in 0.1 ml of 15% Ficol 400 and PBS onto the embryo, and vascular regression was assessed after 60 minutes.
The 3-day chick embryo consists of an embryonic disc from which numerous vessels emerge and return, forming a "FIG. 8"-shaped structure--the embryo in the center with vascular loops extending outward over both poles. […] Following a lag period of around 15 minutes, the constriction of continuity between capillary and secondary vessels, generally on the "venous" side, was observed. Continued pulsatile blood flow progressed, resulting in a "swelling" of the blind tube, followed by a pinching off of the remaining connection and formation of an enclosed vascular sac resembling a "blood island." This process progressed until only the largest vessels remained intact.

[9] = system: human microvascular cells; assay: Inhibition of endothelial cell cord formation in vitro; assay type: cell-based; conditions: concentrations inhibiting cord formation
Excerpt: Endothelial cells have the capacity in vitro to form tubular aggregates resembling capillaries in various early stages of formation. This conversion occurs under relatively specific conditions, in which essential growth factors along with an effective substratum are provided. It has been shown that both the interaction of growth factors with the endothelial cell and its attachment to a substratum activate the NHE. The activation of this exchanger is believed to be required for subsequent morphologic transformation of the endothelial cell into a multicellular tubular structure.
To assess the effect of compounds on the cord-like structures formed by human microvascular cells when plated in the presence of VEGF (Vascular Endothelial Growth Factor) and basic fibroblast growth factor on a collagen matrix, a standard cord formation assay was used.

rabbit NHE3 = rabbit NHE3 (Oryctolagus cuniculus, UniProt P26432); assay: NHE3 inhibition, internal pH (BCECF-AM) in transfected PS120 fibroblasts
Chain of rabbit NHE3 (P26432 30-832): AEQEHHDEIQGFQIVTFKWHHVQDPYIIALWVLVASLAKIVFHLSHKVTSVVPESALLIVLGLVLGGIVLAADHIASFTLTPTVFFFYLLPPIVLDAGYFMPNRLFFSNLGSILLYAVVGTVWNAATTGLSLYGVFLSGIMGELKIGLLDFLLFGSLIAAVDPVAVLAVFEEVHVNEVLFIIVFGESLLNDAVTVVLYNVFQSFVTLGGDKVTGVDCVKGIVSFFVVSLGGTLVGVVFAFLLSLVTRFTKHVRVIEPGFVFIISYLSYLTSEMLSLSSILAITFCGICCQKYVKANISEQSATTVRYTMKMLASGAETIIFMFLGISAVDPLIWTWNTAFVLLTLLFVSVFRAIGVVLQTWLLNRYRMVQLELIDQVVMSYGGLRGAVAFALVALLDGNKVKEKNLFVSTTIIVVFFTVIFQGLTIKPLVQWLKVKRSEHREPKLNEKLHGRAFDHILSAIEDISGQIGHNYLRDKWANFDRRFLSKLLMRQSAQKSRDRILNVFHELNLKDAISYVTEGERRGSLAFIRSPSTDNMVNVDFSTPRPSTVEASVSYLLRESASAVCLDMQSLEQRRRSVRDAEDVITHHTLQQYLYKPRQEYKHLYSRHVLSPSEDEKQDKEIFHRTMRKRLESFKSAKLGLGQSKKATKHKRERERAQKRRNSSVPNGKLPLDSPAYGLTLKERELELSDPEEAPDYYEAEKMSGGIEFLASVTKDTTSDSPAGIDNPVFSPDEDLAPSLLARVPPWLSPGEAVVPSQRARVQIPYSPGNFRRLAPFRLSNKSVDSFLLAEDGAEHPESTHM
Protocol: Internal pH was measured either following acid loading or in the absence of an acid-loading challenge, with the results shown in FIGS. 1A and 1B.
Specifically, PS120 fibroblasts transfected with rabbit NHE3 were grown in supplemented Dulbecco's-modified Eagle's medium as described by Levine et al., J. Biol. Chem. 268, 1993, 25527-25535. […] For cells not acid-preloaded, the actual internal pH value was monitored as a function of time following addition of squalamine, with the results depicted in FIG. 1B.
PS120 fibroblasts transfected with rabbit NHE3 were grown and acid preloaded by exposure to 40 mM NH4 Cl as described above in conjunction with FIGS. 1A and 1B. Internal cellular pH changes expressed as the rate of pH recovery as a function of restored extracellular sodium ion concentration following exposure to 10 μg/ml of the compound were assayed with the fluorescent dye BCECF-AM as described above.

human NHE1 = assay: NHE1 inhibition, internal pH in PS120 fibroblasts expressing human NHE1; assay type: cell-based; conditions: 5 μg/ml squalamine, acid-preloaded
Protocol: as §1

[10] = Fasting blood glucose in mice; assay type: in vivo, male CD-1 mice; conditions: total dose 20 mg/kg i.v. (2 × 10 mg/kg), 30 min. after 2d dose
Protocol: To study the effect of steroid administrator or the NHE responsible for secretion of insulin, several of the aminosterols from shark liver were administered to fasting mice. Male CD-1 mice were assigned to one of four treatment groups. Whole blood glucose was tested using glucometer (Lifescan Glucometer II and One Touch test strips). Statistical analysis was via one-way analysis of variance (ANOVA) followed by subsequent Bonferonni's t-test.

[11] = system: Xenopus tadpoles, stage 59-60; assay: Xenopus tadpole assay; conditions: 10 μg/ml
Mouse IV PK study = conditions: in vivo
Protocol: To assess clearance, a mouse IV PK study was performed for compound 319 and squalamine. The compound was administered i.v. and blood samples were taken every 10 minutes. The concentration of the administered steroid was determined by HPLC analysis.

[12] = 20 μg applied, some vascular irritation noted
[13] = 40 μg applied, some vascular irritation noted

For `CC(C)[C@@H](CC[C@@H](C)[C@H]1CC[C@H]2[C@@H]3[C@H](O)C[C@H]4C[C@@H](NCCCNCCCCN)CC[C@]4(C)[C@H]3CC[C@]12C)OS(=O)(=O)O` [Compound 1256], the “Inhibition of rabbit NHE1” value (rabbit NHE1) was “no inhibitory activity; also recorded: lack of inhibition of rabbit sodium/proton exchanger isoform 1 (NHE1)”, the “Growth inhibition of bovine pulmonary endothelial cells (BPE)” value [1] was “inhibited the growth of bovine pulmonary artery endothelial cells (BPE)” and the “Growth inhibition of fibroblasts” value [2] was “no effect”. For the same compound, the “Inhibition of CAM vessel neovascularization” value ([3]; 3-day CAM, 0.65 μg) was “inhibition of CAM vessel neovascularization”, the “Percentage positive, Assay 1” value ([3]; 0.65 μg applied) was 28% and the “Percentage positive, Assay 1” value ([3]; 1.25 μg applied) was 18%. The “Percentage positive, Assay 2” value ([3]; 1.25 μg applied) was 18%, the “Percentage positive, Mean” value ([3]; 1.25 μg applied) was 18% and the “Percentage positive, Assay 1” value ([3]; 2.5 μg applied) was 35%. For the same compound, the “Percentage positive, Assay 2” value ([3]; 2.5 μg applied) was 18%, the “Percentage positive, Mean” value ([3]; 2.5 μg applied) was 27% and the “Percentage positive, Assay 1” value ([3]; 5.0 μg applied) was 91%. The “Percentage positive, Assay 2” value ([3]; 5.0 μg applied) was 57%, the “Percentage positive, Mean” value ([3]; 5.0 μg applied) was 74% and the “Percentage positive, Mean” value ([3]; 20 μg applied) was 55%. For the same compound, the “Percentage positive, Assay 1” value [3, 12] was 52%, the “Percentage positive, Assay 2” value [3, 12] was 58% and the “Percentage positive, Mean” value ([3]; 40 μg applied) was 32%. For the same compound, the “Percentage positive, Assay 1” value [3, 13] was 50%, the “Percentage positive, Assay 2” value [3, 13] was 13% and the Percentage positive ([3]; 13-day embryo, 5.0 μg applied) was 0/26. The “Inhibition of CAM vessel neovascularization” value ([3]; 13-day old chick, ten times that amount) was “no inhibitory effect”, the “Suppression of growth of human coronary artery smooth muscle” value [4] was “suppress in vitro the growth of human coronary artery smooth muscle” and the “Growth inhibition of epithelial cells” value [5] was “no effect”. The minimal effective concentration (ELC) was 13.2 µg/mL, the “Tumor growth after cessation of treatment” value (human melanoma 1205Lu) was “tumor growth continued at a rate similar to untreated controls” and the “Suppression of growth of melanoma 1205Lu” value (human melanoma 1205Lu; 10, 20, 40 mg/kg/d, listed as Squalamine) was “suppress the growth of melanoma 1205Lu in RAG-1 mice in a dose-dependent fashion; also recorded: clear suppression of tumor growth in a dose-dependent fashion”. The “Inhibition of neutrophil adherence” value [6] was “no inhibition”, the “Tadpole E (epithelial)” value [7] was “-” and the “Tadpole GI (gastrointestinal)” value [7] was “-”. The “Tadpole M (melanocytes)” value [7] was “-”, the “Tadpole Mus (muscle)” value [7] was “-” and the “Tadpole V (vascular)” value [7] was “+”. The “Body weight and hematologic parameters” value (B16 melanoma; squalamine) was “no significant depression”, the “Impact on tumor volume” value (B16 melanoma; squalamine 5 mg/kg/day) was “no significant impact on tumor volume” and the “Tumor growth effect of single agent compared with combination” value (B16 melanoma; squalamine 15 mg/kg/day, compound 1436 alone in a tolerable schedule) was “Neither administration of squalamine at 15 mg/kg/day nor compound 1436 alone in a tolerable schedule could achieve this effect”. For the same compound, the “Suppression of tumor volume” value (B16 melanoma; squalamine, subcutaneous, intraperitoneal or oral) was “dose-dependent suppression of tumor volume”, the Vitelline capillary regression ([8]; 0.001 μg applied) was 0 and the Vitelline capillary regression ([8]; 0.01 μg applied) was “+”. For the same compound, the Vitelline capillary regression ([8]; 0.1 μg applied) was “+”, the Vitelline capillary regression ([8]; 1 μg applied) was “+” and the Vitelline capillary regression ([8]; 10 μg applied) was “+”. The “Hemorrhage / hemolysis in chick embryo” value ([8]; 0.1 ml in 15% Ficol in PBS, listed as Squalamine) was “No hemorrhage was seen; also recorded: absence of hemolysis”, the “Effect on chick embryo vessels” value ([8]; 3- to 5-day chick embryo) was “disrupt vitelline capillaries in 3- to 5-day chick embryos” and the “Chick embryo diss. assay, Minimum Effective Concentration” value ([8]; Table II) was 0.01 µg. For the same compound, the “Effect on cell viability or proliferation” value [9] was “does not appear to profoundly affect cell viability or proliferation”, the “Inhibition of NHE3” value (rabbit NHE3; 5 μg/ml squalamine, acid-preloaded and not acid-preloaded cells) was “inhibited NHE3 with respect to proton concentration at both Km and Vmax levels” and the “Effect on resting pH” value (rabbit NHE3; 5 μg/ml, not acid-preloaded) was “causes the cell to drop to a lower pH in its presence before activation of the pump occurs”. For the same compound, the “NHE isoform specificity” value (rabbit NHE3; NHE3 vs NHE1, listed as squalamine) was “inhibits NHE3, but not NHE1; also recorded: specificity for NHE3 over NHE1”, the “Inhibition of human NHE1” value (human NHE1) was “no inhibitory activity; also recorded: lack of inhibition of human NHE1” and the “Fasting Blood Glucose Mean ± SEM” value [10] was 65 ± 7.3 mg/dL. The “Tadpole assay, observed effects” value [11] was “Vascular occlusion in fine capillaries of tail; also recorded: No effect on vascular flow through hands or feet”, the “Tadpole time to death” value [11] was at most 2 h and the “Tadpole assay, observed effects” value ([11]; listed as squalamine) was “blood flow through the capillaries of the tail shut down; also recorded: unaltered blood flow through the fine capillaries of the hands and feet; also recorded: common vascular occlusive effect”.
For `C[C@H](CCC(=O)O)[C@H]1CC[C@H]2[C@@H]3CC[C@H]4C[C@@H](NCCCNCCCCN)CC[C@]4(C)[C@H]3CC[C@]12C` [Compound 319], the half-life (Mouse IV PK study) was “about 14 minute”, the “Control of B16 in C57B mice” value (B16 melanoma; compound 319, subcutaneous, intraperitoneal (FIG. 6 legend)) was “control of B16 in C57B mice to an extent almost comparable to squalamine” and the Vitelline capillary regression ([8]; 0.001 μg applied) was “+/-”. The Vitelline capillary regression ([8]; 0.01 μg applied) was “+”, the Vitelline capillary regression ([8]; 0.1 μg applied) was “+” and the Vitelline capillary regression ([8]; 1 μg applied) was “+”. The Vitelline capillary regression ([8]; 10 μg applied) was “+”, the “Potency as an NHE inhibitor compared with squalamine” value (rabbit NHE3) was “superior to squalamine” and the “Tadpole assay, observed effects” value [11] was “common vascular occlusive effect”.
